Results published in the supplement of paper PMC13380429.

Tests used:
Conditions in all cases: 72 h
Calu-3 [1] = assay: cell viability relative to DMSO; higher = less toxic
U2OS [2] = assay: as above
Caco-2 [3] = assay: as above
Calu-3 [4] = assay: drug sensitivity score (DSS) for viability; higher = more toxic; extreme values may be limits of the assay
U2OS [5] = assay: as above
Caco-2 [6] = assay: as above
Calu-3 [7] = assay: relative viability EC50 (midpoint between 100% and the lowest measured viability); higher = less toxic
U2OS [8] = assay: as above
Caco-2 [9] = assay: as above
HepG2 [10] = assay: cell viability relative to DMSO; higher = less toxic
HepG2 [11] = assay: drug sensitivity score (DSS) for viability; higher = more toxic; extreme values may be limits of the assay
HepG2 [12] = assay: relative viability EC50 (midpoint between 100% and the lowest measured viability); higher = less toxic
Vero E6 [13] = assay: cell viability relative to DMSO; higher = less toxic
Vero E6 [14] = assay: drug sensitivity score (DSS) for viability; higher = more toxic; extreme values may be limits of the assay
Vero E6 [15] = assay: relative viability EC50 (midpoint between 100% and the lowest measured viability); higher = less toxic

Structure (SMILES)	cell viability (Calu-3 [1]; 1 nM) [%]	cell viability (Calu-3 [1]; 10 nM) [%]	cell viability (Calu-3 [1]; 100 nM) [%]	cell viability (Calu-3 [1]; 1000 nM) [%]	cell viability (Calu-3 [1]; 10000 nM) [%]	cell viability (U2OS [2]; 1 nM) [%]	cell viability (U2OS [2]; 10 nM) [%]	cell viability (U2OS [2]; 100 nM) [%]	cell viability (U2OS [2]; 1000 nM) [%]	cell viability (U2OS [2]; 10000 nM) [%]	cell viability (Caco-2 [3]; 1 nM) [%]	cell viability (Caco-2 [3]; 10 nM) [%]	cell viability (Caco-2 [3]; 100 nM) [%]	cell viability (Caco-2 [3]; 1000 nM) [%]	cell viability (Caco-2 [3]; 10000 nM) [%]	drug sensitivity score (Calu-3 [4])	drug sensitivity score (U2OS [5])	drug sensitivity score (Caco-2 [6])	relative viability EC50 (Calu-3 [7]) [µM]	relative viability EC50 (U2OS [8]) [µM]	relative viability EC50 (Caco-2 [9]) [µM]	cell viability (HepG2 [10]; 1 nM) [%]	cell viability (HepG2 [10]; 10 nM) [%]	cell viability (HepG2 [10]; 100 nM) [%]	cell viability (HepG2 [10]; 1000 nM) [%]	cell viability (HepG2 [10]; 10000 nM) [%]	drug sensitivity score (HepG2 [11])	relative viability EC50 (HepG2 [12]) [µM]	cell viability (Vero E6 [13]; 1 nM) [%]	cell viability (Vero E6 [13]; 10 nM) [%]	cell viability (Vero E6 [13]; 100 nM) [%]	cell viability (Vero E6 [13]; 1000 nM) [%]	cell viability (Vero E6 [13]; 10000 nM) [%]	drug sensitivity score (Vero E6 [14])	relative viability EC50 (Vero E6 [15]) [µM]
C/C(=C\C(N)C(=O)O)CP(=O)(O)O (stereo not given)	95.9	98.3	104	96.2	101	101	96.3	97	97.1	104	102	110	97.5	90	101	0	0	0	> 10	> 10	> 10	–	–	–	–	–	–	–	–	–	–	–	–	–	–
CS(=O)(=O)Nc1ccc(-c2coc3cc(OCc4cccc(C(=O)O)c4)ccc3c2=O)cc1	108	90.4	96.2	101	103	97.8	99.1	107	105	103	94.9	97.6	97.7	97.1	101	0	0	0	> 10	> 10	> 10	92.6	107	101	109	93.2	0	> 10	–	–	–	–	–	–	–
CS(=O)(=O)c1cccc(CNc2nc(Nc3ccc4c(c3)CCC(=O)N4)ncc2C(F)(F)F)c1	108	99.5	101	88.2	88.5	98.3	97.6	93.7	92.4	46	94.6	101	95.3	96.6	85.5	0.5	4.2	0.3	> 10	2.04	> 10	104	111	94.4	94.9	50.2	3.5	–	103	96.9	99.1	87	78.8	1.8	> 10
Cc1ccc2c(N3CCN(CCc4cccc(N5CCNC5=O)c4)CC3)cccc2n1	93.6	94.8	108	99.2	97.6	101	101	101	95.5	97.7	104	98	93.9	101	96	0	0	0	> 10	> 10	> 10	96.1	98.6	89.2	92.8	73.5	1.7	–	99.8	100	98.3	103	96.3	0	> 10
O=C(Nc1cccnc1)c1cc(-c2ccnc(F)c2)ccc1OCc1ccccc1	94.2	102	96.5	102	104	95.6	100	95.1	96.3	97.3	107	110	94.8	92	86.6	0	0	0.4	> 10	> 10	> 10	–	–	–	–	–	–	–	99.3	101	97.8	98	95.2	0	> 10
O=C1Nc2ccccc2C2(CCN(CCc3ccc(C(F)(F)F)cc3)CC2)O1	99.7	98.7	102	108	82.4	100	94.9	99.8	94.7	91.2	93.3	97.2	94.7	99.2	78.6	0.2	0	0.8	> 10	> 10	> 10	97.7	96.2	88.8	100	58.1	2.1	–	95.6	99	97.2	96.3	93.5	0	> 10
Cc1nc[nH]c1CCN [4-methylhistamine]	89.5	101	107	88	99.2	95.1	99.5	104	98	104	91.9	95.1	99.2	100	101	0	0	0	> 10	> 10	> 10	98.1	98.6	88.5	96.2	91.9	0	> 10	–	–	–	–	–	–	–
Cc1ccc2c(=O)c3cccc(CC(=O)O)c3oc2c1C [ASA-404]	98	86.7	105	99.4	102	100	97.4	101	99.7	103	94.6	98.6	99	96	93.3	0	0	0	> 10	> 10	> 10	–	–	–	–	–	–	–	102	106	102	108	97.6	0	> 10
